# Experiments:
# [1] = test system: human corneal endothelial cells; assay: Na+/K+-ATPase and ZO-1 immunostaining (pumping and barrier function markers); assay type: cell-based; details: 1, 3, 10 μM; immunostaining after 20 days
# Procedure: (§1) *Human corneal endothelial cells (HCEC, where the cells were obtained and culturing method thereof): HCEC was cultured as follows. In short, Descemet's membrane including corneal endothelial cells was peeled off from a corneal for research purchased from the Seattle Eye Bank, and the corneal endothelial cells were mechanically peeled off with a basal membrane. After collagenase (ROCHE catalog No: 10 103 586 001) was used to detach and collect the corneal endothelial cell from the basal membrane (typically 1 mg/mL collagenase A (Roche Applied Science) was used for treatment at 37° C. for 2 hours), the cells were subjected to primary culture. The medium used was Opti-MEM I Reduced-Serum Medium, Liquid (INVITROGEN catalog No.: 31985-070) to which 8% fetal bovine serum (FBS) (BIOWEST, catalog No.: S1820-500), […] of CaCl2.2H2O (SIGMA catalog No.: C7902-500G), 0.08% of chondroitin sulfate (SIGMA catalog No.: C9819-5G), 20 μg/ml of ascorbic acid (SIGMA catalog No.: A4544-25G), 50 μg/ml of gentamicin (INVITROGEN catalog No.: 15710-064) and 5 ng/ml of EGF (INVITROGEN catalog No.: PHG0311) were added and acclimated for a 3T3 feeder cell. […] Immunostaining was applied to the cells for observation with a fluorescence microscope. […]
# [2] = cited from earlier work
# [3] = test system: human corneal endothelial cells; assay: Ki67 immunostaining of cultured human corneal endothelial cells; assay type: cell-based; details: 10 μM; after 3 days; vs control
# Procedure: as §1
# [4] = test system: human corneal endothelial cells; assay: Cytokine antibody array (Proteome Profiler) of corneal endothelial culture supernatant; assay type: cell-based; details: 10 μM, semi quantitative
# Procedure: Corneal endothelial cells were cultured in the presence of 10 μM SB203580, and culture supernatant was collected as a sample solution. Cytokines in the culture supernatant were comprehensively measured semi quantitatively with a Proteome Profiler (# ARY005, R&D). A membrane blotted with cytokine antibodies was placed in a tray. 2 ml of blocking solution was added and the membrane was incubated for 1 hour at room temperature. Biotin antibodies were added to the sample solution and incubated for 1 hour at room temperature. The blocking solution was discarded. The membrane was immersed in an antibody solution and incubated overnight at 4° C. After washing the membrane, 2 ml of HRP labeling streptavidin solution diluted with a blocking solution was added and the membrane was incubated at room temperature for 30 minutes. After washing the membrane, a substrate solution was added for detection with LAS400 (Fuji Film).
# Based on the aforementioned experimental methodology, a cytokine antibody array (Proteome Profiler, # ARY005, R&D Systems) blotted with 36 types of antibodies was used to find the expression pattern of cytokines in a human corneal endothelial culture solution.
# [5] = test system: corneal endothelial cells; assay: Western blot of apoptosis molecules after UV irradiation; assay type: cell-based; details: UV 100 J/m^2, 10 μM
# Procedure: as §1, with “cell. Specifically, after digestion at 37° C., HCEC obtained from individual corneas was resuspended in a culture medium and plated on a well of a 12-well plate coated with FNC Coating Mix®. The culture medium was prepared in accordance with a partially-modified disclosed protocol. In short, a basal cultural medium containing OptiMEM-I (Life Technologies), 8% FBS, 5 ng/mL of epithelial growth factor (EGF) (Sigma-Aldrich Co., St. Louis, Mo.), 20 μg/mL of ascorbic acid (Sigma-Aldrich), 200 mg/L calcium chloride (Sigma-Aldrich), 0.08% chondroitin sulfate (Wako Pure Chemical Industries, Osaka) and 50 μg/mL of gentamicin was prepared and an acclimated medium was collected after inactivated 3T3 fibroblasts were cultured. The 3T3 fibroblasts were inactivated as previously described.” for “cell.”
compound,measurement,setting,value
"C[S+]([O-])c1ccc(-c2nc(-c3ccncc3)c(-c3ccc(F)cc3)[nH]2)cc1 (centres unmarked) [SB203580, 4-(4-fluorophenyl)-2-(4-methylsulfinylphenyl)-5-(4-pyridyl)-1H-imidazole]",expression of Na+/K+-ATPase and ZO-1,[1],express Na^+/K^+-ATPase and ZO-1 and to maintain normal functions in all cells
same,solubility in methanol,[2]; methanol,soluble
same,solubility in water (pharmacopoeia class),[2]; water,difficult to dissolve (100 mL or greater and less than 1000 mL)
same,Expression of Ki67 (Ki67 positive cells),[3],significantly more cells
same,"Cytokines other than serpinE1 (GROa, sICAM-1, IL-6, IL-8, IL-23, MCP-1, MIF) in culture supernatant",[4],decreased relative to vehicle
same,activation by cleavage of PARP due to UV irradiation,[5],suppresses
same,activation by cleavage of caspase 3 due to UV irradiation,[5],suppresses
same,phosphorylated histone H2AX induced by UV irradiation,[5],suppresses
